Data as given in patent publication US9879023B2, “Therapeutic compounds” (Gilead Sciences, Inc., priority 2011, dated 2018).

tested on: HIV-IIIb (MT-4 cells); assay: Test A: Antiviral Assays in MT4 Cells; format: cell-based; conditions: Human immunodeficiency virus 1, IIIB, MT4, 120 h
Protocol: Test A: Antiviral Assays in MT4 Cells
For the antiviral assay utilizing MT-4 cells, 0.4 μL of […] test concentration of 3-fold serially diluted compound in DMSO was added to 40 μL of cell growth medium (RPMI 1640, 10% FBS, 1% penicilline/Streptomycine, 1% L-Glutamine, 1% HEPES) in each well of 384-well assay plates (10 concentrations) in quadruplicate.
1 mL aliquots of 2×10e6 MT-4 cells are pre-infected for 1 and 3 hrs respectively, @37° C. with 25 uL (MT4) or of either cell growth medium (mock-infected) or a fresh 1:250 dilution of an HIV-IIIb concentrated ABI stock (0.004 m.o.i. for MT4 cells). Infected and uninfected cells are diluted in cell growth medium and 35 uL of 2000 (for MT4) cells is added to each well of the assay plates.
Assay plates were then incubated in a 37° C. incubator. After 5 days of incubation, 25 μl of 2× concentrated CellTiter-Glo™ Reagent (catalog # G7573, Promega Biosciences, Inc., Madison, Wis.) was added to each well of the assay plate. Cell lysis was carried out by incubating at room temperature for 2-3 min and then chemiluminescence was read using the Envision reader (PerkinElmer). […]

For `Cc1cc2nc(N(C)C)sc2c(-c2ccc3c4c(ccnc24)CCO3)c1[C@H](OC(C)(C)C)C(=O)O` (atropisomer, axis not shown) [Compound 43, (S)-2-tert-butoxy-2-((R)-7-(2,3-dihydropyrano[4,3,2-de]quinolin-7-yl)-2-(dimethylamino)-5-methylbenzo[d]thiazol-6-yl)acetic acid], the EC50 was 5090 nM.

same assay, conditions: Human immunodeficiency virus 1, IIIB, MT4, 120 h, MT-4 cells infected with HIV-IIIb (0.004 m.o.i.), 5 days incubation, CellTiter-Glo readout; read-out: EC50

`Cc1cc2nc(C(N)=O)sc2c(-c2ccc3c4c(ccnc24)CCO3)c1[C@H](OC(C)(C)C)C(=O)O` [Compound 40, (S)-2-tert-butoxy-2-((S)-2-carbamoyl-7-(2,3-dihydropyrano[4,3,2-de]quinolin-7-yl)-5-methylbenzo[d]thiazol-6-yl)acetic acid] and `Cc1cc2nc(C(=O)O)sc2c(-c2ccc3c4c(ccnc24)CCO3)c1[C@H](OC(C)(C)C)C(=O)O` (atropisomer, axis not shown) [Compound 41] are within 1.5-fold of each other in EC50: 722 nM for the first, 923 nM for the second.

First: Cc1cc2ncsc2c(-c2ccc3c4c(ccnc24)CCO3)c1[C@H](OC(C)(C)C)C(=O)O (atropisomer, axis not shown) [Compound 95, (S)-2-tert-butoxy-2-((S)-7-(2,3-dihydropyrano[4,3,2-de]quinolin-7-yl)-5-methylbenzo[d]thiazol-6-yl)acetic acid]
Second: Cc1cc2nc(C(F)F)sc2c(-c2ccc3c4c(ccnc24)CCO3)c1[C@H](OC(C)(C)C)C(=O)O (atropisomer, axis not shown) [Compound 92, (S)-2-tert-butoxy-2-((S)-2-(difluoromethyl)-7-(2,3-dihydropyrano[4,3,2-de]quinolin-7-yl)-5-methylbenzo[d]thiazol-6-yl)acetic acid]
The EC50 of the first is 1.9-fold higher: 655 nM for the first, 353 nM for the second.

`CC(=O)Nc1nc2cc(C)c([C@H](OC(C)(C)C)C(=O)O)c(-c3ccc4c5c(ccnc35)CCO4)c2s1` (atropisomer, axis not shown) [Compound 93, (S)-2-((S)-2-acetamido-7-(2,3-dihydropyrano[4,3,2-de]quinolin-7-yl)-5-methylbenzo[d]thiazol-6-yl)-2-tert-butoxyacetic acid] and `CNC(=O)c1nc2cc(C)c([C@H](OC(C)(C)C)C(=O)O)c(-c3ccc4c5c(ccnc35)CCO4)c2s1` (atropisomer, axis not shown) [Compound 97, (S)-2-tert-butoxy-2-((S)-7-(2,3-dihydropyrano[4,3,2-de]quinolin-7-yl)-5-methyl-2-(methylcarbamoyl)benzo[d]thiazol-6-yl)acetic acid] are within 1.5-fold of each other in EC50: 1420 nM for the first, 1240 nM for the second.

First: Cc1nc2cc(C)c([C@H](OC(C)(C)C)C(=O)O)c(-c3ccc(Cl)cc3)c2s1 [Compound 7, (S)-2-tert-butoxy-2-(7-(4-chlorophenyl)-2,5-dimethylbenzo[d]thiazol-6-yl)acetic acid]
Second: Cc1cc2nc(C#CC3CC3)sc2c(-c2ccc(Cl)cc2)c1[C@H](OC(C)(C)C)C(=O)O [Compound 14]
The EC50 of the first is 2.8-fold lower: 257 nM for the first, 718 nM for the second. The first is the more potent here.

Compared with `CCN(C)c1nc2cc(C)c([C@H](OC(C)(C)C)C(=O)O)c(-c3ccc4c5c(ccnc35)CCO4)c2s1` (atropisomer, axis not shown) [Compound 44, (S)-2-tert-butoxy-2-((S)-7-(2,3-dihydropyrano[4,3,2-de]quinolin-7-yl)-2-(ethyl(methyl)amino)-5-methylbenzo[d]thiazol-6-yl)acetic acid], `Cc1cc2c(sc(=O)n2C)c(-c2ccc3c4c(ccnc24)CCO3)c1[C@H](OC(C)(C)C)C(=O)O` (atropisomer, axis not shown) [Compound 68, (S)-2-tert-butoxy-2-((S)-7-(2,3-dihydropyrano[4,3,2-de]quinolin-7-yl)-3,5-dimethyl-2-oxo-2,3-dihydrobenzo[d]thiazol-6-yl)acetic acid] is 16-fold higher in EC50: 18.7 nM for the first, 292 nM for the second. The first is the more potent here.

Work on `Cc1cc2nc(C3CC3)sc2c(-c2ccc3c4c(cccc24)CCO3)c1[C@H](OC(C)(C)C)C(=O)O` [Compound 85, (S)-2-tert-butoxy-2-((S)-2-cyclopropyl-7-(2,3-dihydrobenzo[de]chromen-7-yl)-5-methylbenzo[d]thiazol-6-yl)acetic acid] yielded an EC50 of 66.4 nM.

same assay, conditions: MT-4 cells infected with HIV-IIIb (0.004 m.o.i.), 5 days incubation, CellTiter-Glo readout; read-out: EC50

First: Cc1cc2nc(N(C)CC3OCCO3)sc2c(-c2ccc3c4c(ccnc24)CCO3)c1[C@H](OC(C)(C)C)C(=O)O (atropisomer, axis not shown) [Compound 60, (S)-2-((R)-2-(((1,3-dioxolan-2-yl)methyl)(methyl)amino)-7-(2,3-dihydropyrano[4,3,2-de]quinolin-7-yl)-5-methylbenzo[d]thiazol-6-yl)-2-tert-butoxyacetic acid]
Second: Cc1cc2nc(N(C)CC(C)C)sc2c(-c2ccc3c4c(ccnc24)CCO3)c1[C@H](OC(C)(C)C)C(=O)O (atropisomer, axis not shown) [Compound 49, (S)-2-tert-butoxy-2-((R)-7-(2,3-dihydropyrano[4,3,2-de]quinolin-7-yl)-2-(isobutyl(methyl)amino)-5-methylbenzo[d]thiazol-6-yl)acetic acid]
The EC50 of the first is 2.6-fold higher: 34500 nM for the first, 13300 nM for the second. The second is the more potent here.

First: Cc1cc2nc(N(C)CC3OCCO3)sc2c(-c2ccc3c4c(ccnc24)CCO3)c1[C@H](OC(C)(C)C)C(=O)O (atropisomer, axis not shown) [Compound 59, (S)-2-((S)-2-(((1,3-dioxolan-2-yl)methyl)(methyl)amino)-7-(2,3-dihydropyrano[4,3,2-de]quinolin-7-yl)-5-methylbenzo[d]thiazol-6-yl)-2-tert-butoxyacetic acid]
Second: Cc1cc2nc(C3CC3)sc2c(-c2ccc3c4c(ccnc24)CCO3)c1[C@H](OC(C)(C)C)C(=O)O [Compound 21, (S)-2-tert-butoxy-2-((S)-2-cyclopropyl-7-(2,3-dihydropyrano[4,3,2-de]quinolin-7-yl)-5-methylbenzo[d]thiazol-6-yl)acetic acid]
The EC50 of the first is 10-fold higher: 149 nM for the first, 14.9 nM for the second. The second is the more potent here.

Going from `Cc1cc2nc(C3CCCC3)sc2c(-c2ccc3c4c(ccnc24)CCO3)c1[C@H](OC(C)(C)C)C(=O)O` (atropisomer, axis not shown) [Compound 80, (S)-2-tert-butoxy-2-((S)-2-cyclopentyl-7-(2,3-dihydropyrano[4,3,2-de]quinolin-7-yl)-5-methylbenzo[d]thiazol-6-yl)acetic acid] to `Cc1cc2nc(C3=CCCC3)sc2c(-c2ccc3c4c(ccnc24)CCO3)c1[C@H](OC(C)(C)C)C(=O)O` (atropisomer, axis not shown) [Compound 79, (S)-2-tert-butoxy-2-((R)-2-cyclopentenyl-7-(2,3-dihydropyrano[4,3,2-de]quinolin-7-yl)-5-methylbenzo[d]thiazol-6-yl)acetic acid], the EC50 rises from 136 nM to 45900 nM (340-fold). The first is the more potent here.

Compared with `Cc1cc2nc(C3CC3)sc2c(-c2ccc3c(c2Cl)NCCO3)c1[C@H](OC(C)(C)C)C(=O)O` (atropisomer, axis not shown) [Compound 87, (S)-2-tert-butoxy-2-((R)-7-(5-chloro-3,4-dihydro-2H-benzo[b] [1,4]oxazin-6-yl)-2-cyclopropyl-5-methylbenzo[d]thiazol-6-yl)acetic acid], `Cc1cc2nc(C3CCCC3)sc2c(-c2ccc3c4c(ccnc24)CCO3)c1[C@H](OC(C)(C)C)C(=O)O` (atropisomer, axis not shown) [Compound 81, (S)-2-tert-butoxy-2-((R)-2-cyclopentyl-7-(2,3-dihydropyrano[4,3,2-de]quinolin-7-yl)-5-methylbenzo[d]thiazol-6-yl)acetic acid] is 17-fold higher in EC50: 1570 nM for the first, 27400 nM for the second.

With `Cc1cc2nc(C3=CCCC3)sc2c(-c2ccc3c4c(ccnc24)CCO3)c1[C@H](OC(C)(C)C)C(=O)O` (atropisomer, axis not shown) [Compound 78, (S)-2-tert-butoxy-2-((S)-2-cyclopentenyl-7-(2,3-dihydropyrano[4,3,2-de]quinolin-7-yl)-5-methylbenzo[d]thiazol-6-yl)acetic acid] the EC50 was 726 nM.
